Legend:
neuropeptide Y receptor = conditions: in vitro test for neuropeptide Y receptor antagonism; cited from earlier work
Y1 = target: T1, Y1 (Homo sapiens, UniProt P25929); assay: endogenous NPY response in Bowes melanoma cell host; conditions: at 10 uM; human Bowes melanoma cell line (HMCB)
T1 sequence (P25929 1-384): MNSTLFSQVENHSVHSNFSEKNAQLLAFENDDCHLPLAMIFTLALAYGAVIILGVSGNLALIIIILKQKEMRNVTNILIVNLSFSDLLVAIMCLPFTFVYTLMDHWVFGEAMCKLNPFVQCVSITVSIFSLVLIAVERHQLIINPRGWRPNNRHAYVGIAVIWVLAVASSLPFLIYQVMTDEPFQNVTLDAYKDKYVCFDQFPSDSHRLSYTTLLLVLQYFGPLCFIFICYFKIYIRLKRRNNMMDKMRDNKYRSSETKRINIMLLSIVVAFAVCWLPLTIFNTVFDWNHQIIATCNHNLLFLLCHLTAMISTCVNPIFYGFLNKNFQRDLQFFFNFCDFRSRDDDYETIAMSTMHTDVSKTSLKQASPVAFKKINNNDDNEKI

| Structure (SMILES) | IC50 (neuropeptide Y receptor) [nM] | endogenous NPY response (Y1) |
| --- | --- | --- |
| Cc1cc(N2CCCC2)cc(/C=C/c2cccc(C(F)(F)F)c2)n1 [(E)-2-methyl4-pyrrolidino-6-[2-(3-trifluoromethylphenyl)vinyl]pyridine] | 4.1 | – |
| NC(N)=NCCC[C@@H](NC(=O)C(c1ccccc1)c1ccccc1)C(=O)NCc1ccc(O)cc1 [BIBP3226] | – | completely blocked |

— US6399631B1, “Carbazole neuropeptide Y5 antagonists” (Pfizer Inc., priority 1999, dated 2002)
